Measured values published in publication PMC10152663, “SEC14-GOLD protein PATELLIN2 binds IRON-REGULATED TRANSPORTER1 linking root iron uptake to vitamin E” (Plant Physiology, 2022).
pKd: −log10 of the molar value.

Biological target: T1, PATELLIN2 (PATL2) (Arabidopsis thaliana, UniProt Q56ZI2)
T1 construct: Strep-tagged PATL2 (full length), recombinant from E. coli
T1 sequence (Q56ZI2 2-683): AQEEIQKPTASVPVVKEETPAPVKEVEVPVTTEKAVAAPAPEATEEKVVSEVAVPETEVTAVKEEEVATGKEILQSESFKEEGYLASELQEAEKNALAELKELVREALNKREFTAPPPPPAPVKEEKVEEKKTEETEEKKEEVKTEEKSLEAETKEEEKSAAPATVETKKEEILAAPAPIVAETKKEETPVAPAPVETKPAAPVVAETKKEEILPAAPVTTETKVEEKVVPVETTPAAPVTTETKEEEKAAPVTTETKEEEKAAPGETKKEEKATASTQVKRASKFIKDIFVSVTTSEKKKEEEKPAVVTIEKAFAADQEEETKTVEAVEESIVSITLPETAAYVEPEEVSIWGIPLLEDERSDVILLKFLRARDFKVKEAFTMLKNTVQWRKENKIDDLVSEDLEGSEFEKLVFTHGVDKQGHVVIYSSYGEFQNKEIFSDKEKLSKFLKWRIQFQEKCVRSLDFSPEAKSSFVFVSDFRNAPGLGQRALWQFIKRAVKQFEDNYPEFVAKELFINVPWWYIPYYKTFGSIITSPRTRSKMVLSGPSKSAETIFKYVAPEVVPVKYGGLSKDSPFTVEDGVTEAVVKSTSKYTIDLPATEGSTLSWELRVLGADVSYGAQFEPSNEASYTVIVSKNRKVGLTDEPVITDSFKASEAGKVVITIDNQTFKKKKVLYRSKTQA
Test: spectrofluorimetric titration of NBD fluorescence with […] purified protein
Type: binding

NBD-α-tocopherol [NBD-Toc]
pKd: 7.07
